Several values for one entry are separate records, joined by “and”; a condition that tells them apart may be missing. Equal values may be shown once.
How the values were obtained:
Format in all cases: cell-based
[1] = test system: E. Coli strain No. G1108E; experiment: Checkerboard titration synergy assay of natural melittin and analogue #6 with polymyxin B
Escherichia coli = experiment: Growth curves with polymyxin B and bumble bee, yellowjacket or baldfaced hornet venom; conditions: for optical density, AVERAGE: AVERAGE line; for optical density: single replicates
Protocol: The activity of hymenoptera venom other than HBV was also determined for bumblee venom, yellow jacket venom and bald faced hornet venom, as shown below in Tables 8, 9

[2] = test system: kanamycin resistant S. aureus; experiment: Checkerboard titration assay for synergy of honeybee venom with antibiotics (OD660 growth curves)
[3] = 0 hours after innoculation, YJ 5 ug/ml, BF 5 ug/ml, Pol B 3.125 U/ml alone, Pol B 5 U/ml in the combinations
[4] = 0 hours after innoculation, doses of what is present: Pol B 3.125 Units/ml, BB Venom 5 ug/ml
[5] = 0 hours after innoculation, doses of what is present: Pol B 6.25 Units/ml, BB Venom 20 ug/ml
[6] = 2 hours after innoculation, YJ 5 ug/ml, BF 5 ug/ml, Pol B 3.125 U/ml alone, Pol B 5 U/ml in the combinations
[7] = 2 hours after innoculation, doses of what is present: Pol B 3.125 Units/ml, BB Venom 5 ug/ml
[8] = 2 hours after innoculation, doses of what is present: Pol B 6.25 Units/ml, BB Venom 20 ug/ml
[9] = 4 hours after innoculation, YJ 5 ug/ml, BF 5 ug/ml, Pol B 3.125 U/ml alone, Pol B 5 U/ml in the combinations
[10] = 4 hours after innoculation, doses of what is present: Pol B 3.125 Units/ml, BB Venom 5 ug/ml
[11] = 4 hours after innoculation, doses of what is present: Pol B 6.25 Units/ml, BB Venom 20 ug/ml
[12] = 6 hours after innoculation, YJ 5 ug/ml, BF 5 ug/ml, Pol B 3.125 U/ml alone, Pol B 5 U/ml in the combinations
[13] = 6 hours after innoculation, doses of what is present: Pol B 3.125 Units/ml, BB Venom 5 ug/ml
[14] = 8 hours after innoculation, YJ 5 ug/ml, BF 5 ug/ml, Pol B 3.125 U/ml alone, Pol B 5 U/ml in the combinations
[15] = 8 hours after innoculation, doses of what is present: Pol B 3.125 Units/ml, BB Venom 5 ug/ml
[16] = 8 hours after innoculation, doses of what is present: Pol B 6.25 Units/ml, BB Venom 20 ug/ml
[17] = 12 hours after innoculation, YJ 5 ug/ml, BF 5 ug/ml, Pol B 3.125 U/ml alone, Pol B 5 U/ml in the combinations
[18] = 12 hours after innoculation, doses of what is present: Pol B 3.125 Units/ml, BB Venom 5 ug/ml
[19] = 12 hours after innoculation, doses of what is present: Pol B 6.25 Units/ml, BB Venom 20 ug/ml

## Polymyxin B
[1]; 0 hrs, doses of what is present: Polymyxin B 3 units, peptide 5 ug
  Average optical densities (OD660): .013
[1]; 0 hrs, doses of what is present: Polymyxin B 6 units, peptide 10 ug
  Average optical densities (OD660): .013
[1]; 2 hrs, doses of what is present: Polymyxin B 3 units, peptide 5 ug
  Average optical densities (OD660): .072
[1]; 2 hrs, doses of what is present: Polymyxin B 6 units, peptide 10 ug
  Average optical densities (OD660): .072
[1]; 4 hrs, doses of what is present: Polymyxin B 3 units, peptide 5 ug
  Average optical densities (OD660): .808
[1]; 4 hrs, doses of what is present: Polymyxin B 6 units, peptide 10 ug
  Average optical densities (OD660): .423
[1]; 6 hrs, doses of what is present: Polymyxin B 3 units, peptide 5 ug
  Average optical densities (OD660): 1.06
[1]; 6 hrs, doses of what is present: Polymyxin B 6 units, peptide 10 ug
  Average optical densities (OD660): .840
[1]; 8 hrs, doses of what is present: Polymyxin B 3 units, peptide 5 ug
  Average optical densities (OD660): 1.08
[1]; 8 hrs, doses of what is present: Polymyxin B 6 units, peptide 10 ug
  Average optical densities (OD660): .911
[1]; 12 hrs, doses of what is present: Polymyxin B 3 units, peptide 5 ug
  Average optical densities (OD660): 1.15
[1]; 12 hrs, doses of what is present: Polymyxin B 6 units, peptide 10 ug
  Average optical densities (OD660): .930
Escherichia coli; [3]
  optical density, AVERAGE: .038
  optical density: .038
Escherichia coli; [4]
  optical density, AVERAGE: .030
  optical density: .030
Escherichia coli; [5]
  optical density, AVERAGE: .030
  optical density: .030
Escherichia coli; [6]
  optical density, AVERAGE: .480
  optical density: .477 and .482
Escherichia coli; [7]
  optical density, AVERAGE: .649
  optical density: .654 and .642 and .652
Escherichia coli; [8]
  optical density, AVERAGE: .023
  optical density: .022 (2×) and .024
Escherichia coli; [9]
  optical density, AVERAGE: 1.03
  optical density: 1.03
Escherichia coli; [10]
  optical density, AVERAGE: 1.02
  optical density: 1.03 and 1.02 (2×)
Escherichia coli; [11]
  optical density, AVERAGE: .251
  optical density: .102 and .472 and .180
Escherichia coli; [12]
  optical density, AVERAGE: 1.07
  optical density: 1.07
Escherichia coli; [13]
  optical density, AVERAGE: 1.03
  optical density: 1.03
Escherichia coli; 6 hours after innoculation, doses of what is present: Pol B 6.25 Units/ml, BB Venom 20 ug/ml
  optical density, AVERAGE: .827
Escherichia coli; [14]
  optical density, AVERAGE: 1.08
  optical density: 1.08
Escherichia coli; [15]
  optical density, AVERAGE: 1.04
  optical density: 1.04
Escherichia coli; [16]
  optical density, AVERAGE: .960
  optical density: .960 and .950 and .970
Escherichia coli; [17]
  optical density, AVERAGE: 1.14
  optical density: 1.14
Escherichia coli; [18]
  optical density, AVERAGE: 1.13
  optical density: 1.12 and 1.14 (2×)
Escherichia coli; [19]
  optical density, AVERAGE: 1.03
  optical density: 1.03 (2×) and 1.04
[2]
  susceptibility to polymyxin B compared with the parent strain: more susceptible to polymyxin B than the parent strain
[2]; POLY B = 12.5, HBV = 0, T0
  MEAN A660: 0.009
[2]; POLY B = 12.5, HBV = 0, T2
  MEAN A660: 0.068
[2]; POLY B = 12.5, HBV = 0, T4
  MEAN A660: 0.266
[2]; POLY B = 12.5, HBV = 0, T6
  MEAN A660: 0.640
[2]; POLY B = 12.5, HBV = 0, T8
  MEAN A660: 0.826
[2]; POLY B = 12.5, HBV = 0, T12
  MEAN A660: 0.976
[2]; POLY B = 12.5, HBV = 0, T24
  MEAN A660: 0.962
[2]; POLY B = 25, HBV = 0, T0
  MEAN A660: 0.009
[2]; POLY B = 25, HBV = 0, T2
  MEAN A660: 0.068
[2]; POLY B = 25, HBV = 0, T4
  MEAN A660: 0.243
[2]; POLY B = 25, HBV = 0, T6
  MEAN A660: 0.629
[2]; POLY B = 25, HBV = 0, T8
  MEAN A660: 0.835
[2]; POLY B = 25, HBV = 0, T12
  MEAN A660: 1.008
[2]; POLY B = 25, HBV = 0, T24
  MEAN A660: 1.048
[2]; POLY B = 50, HBV = 0, T0
  MEAN A660: 0.009
[2]; POLY B = 50, HBV = 0, T2
  MEAN A660: 0.068
[2]; POLY B = 50, HBV = 0, T4
  MEAN A660: 0.208
[2]; POLY B = 50, HBV = 0, T6
  MEAN A660: 0.376
